Measured values from the supplement of paper PMC10883282.

Key:
Test in all cases: standardised AUC of viability dose-response curve (72 h) (fraction (0-1)); higher = less growth inhibition (more resistant)
A204 = tested on: A204
In short: (§1)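 Sarcoma cell lines in 384-well plates were treated in triplicate for 72 h with 2.5 µl of a compound dilution series, made in 1:3 steps from 10 mM to 0.0002 mM on the compound plate. ATPLite viability was scaled from 1 (full) to 0 (none) and fitted per drug and cell line with a four-parameter log-logistic model. The values are standardised areas under the dose-response curve in log-dose space, from a modified drexplorer computeAUC. On that scale, 1 means no response and 0 means full response.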

G401 = tested on: G401
In short: as §1

HS729 = tested on: HS729
In short: as §1

HT1080 = tested on: HT1080
In short: as §1

KHOS-240S = tested on: KHOS-240S
In short: as §1

KHOS-NP = tested on: KHOS-NP
In short: as §1

MES-SA = tested on: MES-SA
In short: as §1

RD-ES = tested on: RD-ES
In short: as §1

RD = tested on: RD
In short: as §1

SK-ES-1 = tested on: SK-ES-1
In short: as §1

SK-LMS-1 = tested on: SK-LMS-1
In short: as §1

SW1353 = tested on: SW1353
In short: as §1

SW684 = tested on: SW684
In short: as §1

SW872 = tested on: SW872
In short: as §1

SW982 = tested on: SW982
In short: as §1

SYO-1 = tested on: SYO-1
In short: as §1

VA-ES-BJ = tested on: VA-ES-BJ
In short: as §1

| SMILES | standardised AUC (A204) | standardised AUC (G401) | standardised AUC (HS729) | standardised AUC (HT1080) | standardised AUC (KHOS-240S) | standardised AUC (KHOS-NP) | standardised AUC (MES-SA) | standardised AUC (RD-ES) | standardised AUC (RD) | standardised AUC (SK-ES-1) | standardised AUC (SK-LMS-1) | standardised AUC (SW1353) | standardised AUC (SW684) | standardised AUC (SW872) | standardised AUC (SW982) | standardised AUC (SYO-1) | standardised AUC (VA-ES-BJ) |
| --- | --- | --- | --- | --- | --- | --- | --- | --- | --- | --- | --- | --- | --- | --- | --- | --- | --- |
| O=C(Cc1ccc(-c2ccc(OCCN3CCOCC3)cc2)cn1)NCc1ccccc1 [KX2-391] | 0.677 | 0.729 | 0.742 | 0.579 | 0.609 | 0.72 | 0.57 | 0.539 | 0.636 | 0.484 | 0.676 | 0.752 | 0.827 | 0.733 | 0.63 | 0.668 | 0.632 |
| C[C@@H]1COCCN1c1cc(-c2ccnn2C)c2ccnc(-c3ccn[nH]3)c2n1 | 0.689 | 0.819 | 0.782 | 0.686 | 0.603 | 0.826 | 0.641 | 0.673 | 0.75 | 0.637 | 0.751 | 0.791 | 0.828 | 0.706 | 0.615 | 0.606 | 0.626 |
